# Experimental data published in patent publication US20050112573A1, “Method of detecting toxic substance” (priority 2001, published 2005).
# System: yeast genes (level of expressed mRNA)
# Experiment: DNA chip analysis of expressed mRNA of yeast genes after 2 h culture with a toxic chemical substance
# Type: cell-based, Saccharomyces cerevisiae S288C
# Protocol: Yeast (Saccharomyces cerevtisiae S288C (α SUC2mal mel gap2 CUP1)) were cultured at 25° C. on YPD medium (yeast extract 1%, polypepton 2%, glucose 2%). One of toxic chemical substances was added to the cell at logarithmic growth phase, and the cell was further cultured for two hours. Cell was cultured without any chemical substance in the same condition, and was used as control. Concentrations of the chemical substances were defined to inhibit the growth of the yeast but not lead to death.
# After the completion of cultivation, the culture was centrifuged to collect the cells. To the cells, sodium acetate buffer (50 mM sodium acetate, 10 mM EDTA, 1% SDS) was added, and the mixture was shaken at 65° C. for five minutes, followed by returning to room temperature, and obtaining the supernatant, which procedure was repeated two times. To the supernatant, ½ amount of a solution of phenol/chloroform was added, and the mixture was centrifuged to give a supernatant, which was added with an equal amount of chloroform, and the mixture was centrifuged to give a supernatant. To the supernatant, an equal amount of isopropanol containing 0.3 M sodium acetate was added, and the mixture was allowed to stand at room temperature for 30 minutes, after which the mixture was centrifuged to give a sediment of the whole RNAs. Seventy % ethanol was added to the sediment, and the mixture was again centrifuged to give a sediment, which was then dried and dissolved in water. mRNA was isolated from the whole RNAs as followings. In view of the fact that a poly A chain is attached to the 3′ terminus of mRNA, a polynucleotide having a poly T structure which was immobilized on the surface of latex beads was used to trap the mRNA, and then the mRNA was washed and eluted with spine column (Oligotex-dT30<Super>mRNA Purification Kit, Takara). Reverse transcription of the mRNA was conducted with a reverse transcriptase (Super Script II Reverse Transcriptase; catalogue No. 18064-014, GibcoBRL) using fluorescence-labeled nucleotides to give cDNAs that were introduced with Cy3-dUTP or Cy5-dUTP during the reverse transcription.
# The labeled cDNAs were dissolved in TE buffer (10 mM Tris-HCl/1 mM EDTA, pH8.0), and the solution was dropped on the DNA chip containing the whole genes of yeast (DNA Chip Research Inc. Japan) so that the cDNAs were hybridized on the DNA chip at 65° C. for over 12 hours. The fluoresces intensity of the DNA chip was read with a scanner, and the ratio relative to the fluorescence intensity resulting from the absence of chemical substance was estimated as the following, which is shown in Tables 1 to 9: [formula]
# In the Tables, “Intensity” indicated in the rightmost column is a value of the level of expressed mRNA of each gene in control cells as divided by the average level of the expressions of the whole genes.
structure (smiles),measurement,setting,value
"CN(C)C(=S)SSC(=S)N(C)C [(10), Tetramethylthiuram disulfide]",The level of expressed mRNA in the presence of chemical substance/The level of expressed mRNA in the absence of chemical substance,yeast gene YAR010C,1.1
same,The level of expressed mRNA in the presence of chemical substance/The level of expressed mRNA in the absence of chemical substance,yeast gene YBL005W-A,1.5
same,The level of expressed mRNA in the presence of chemical substance/The level of expressed mRNA in the absence of chemical substance,yeast gene YBL041W,2.6
same,The level of expressed mRNA in the presence of chemical substance/The level of expressed mRNA in the absence of chemical substance,yeast gene YBL043W,14.7
same,The level of expressed mRNA in the presence of chemical substance/The level of expressed mRNA in the absence of chemical substance,yeast gene YBL078C,15.2
same,The level of expressed mRNA in the presence of chemical substance/The level of expressed mRNA in the absence of chemical substance,yeast gene YBR214W,3.5
same,The level of expressed mRNA in the presence of chemical substance/The level of expressed mRNA in the absence of chemical substance,yeast gene YCL020W,2.4
same,The level of expressed mRNA in the presence of chemical substance/The level of expressed mRNA in the absence of chemical substance,yeast gene YCL027W,16.3
same,The level of expressed mRNA in the presence of chemical substance/The level of expressed mRNA in the absence of chemical substance,yeast gene YCR004C,2.1
same,The level of expressed mRNA in the presence of chemical substance/The level of expressed mRNA in the absence of chemical substance,yeast gene YCR071C,1.2
same,The level of expressed mRNA in the presence of chemical substance/The level of expressed mRNA in the absence of chemical substance,yeast gene YCR088W,0.9
same,The level of expressed mRNA in the presence of chemical substance/The level of expressed mRNA in the absence of chemical substance,yeast gene YDL008W,3.0
same,The level of expressed mRNA in the presence of chemical substance/The level of expressed mRNA in the absence of chemical substance,yeast gene YDL238C,2.7
same,The level of expressed mRNA in the presence of chemical substance/The level of expressed mRNA in the absence of chemical substance,yeast gene YDR055W,2.4
same,The level of expressed mRNA in the presence of chemical substance/The level of expressed mRNA in the absence of chemical substance,yeast gene YDR084C,0.6
same,The level of expressed mRNA in the presence of chemical substance/The level of expressed mRNA in the absence of chemical substance,yeast gene YDR085C,2.3
same,The level of expressed mRNA in the presence of chemical substance/The level of expressed mRNA in the absence of chemical substance,yeast gene YDR104C,2.7
same,The level of expressed mRNA in the presence of chemical substance/The level of expressed mRNA in the absence of chemical substance,yeast gene YDR115W,1.0
same,The level of expressed mRNA in the presence of chemical substance/The level of expressed mRNA in the absence of chemical substance,yeast gene YDR259C,1.8
same,The level of expressed mRNA in the presence of chemical substance/The level of expressed mRNA in the absence of chemical substance,yeast gene YDR315C,1.6
same,The level of expressed mRNA in the presence of chemical substance/The level of expressed mRNA in the absence of chemical substance,yeast gene YDR358W,3.2
same,The level of expressed mRNA in the presence of chemical substance/The level of expressed mRNA in the absence of chemical substance,yeast gene YDR388W,0.9
same,The level of expressed mRNA in the presence of chemical substance/The level of expressed mRNA in the absence of chemical substance,yeast gene YDR432W,0.8
same,The level of expressed mRNA in the presence of chemical substance/The level of expressed mRNA in the absence of chemical substance,yeast gene YDR481C,1.6
same,The level of expressed mRNA in the presence of chemical substance/The level of expressed mRNA in the absence of chemical substance,yeast gene YDR510W,2.5
same,The level of expressed mRNA in the presence of chemical substance/The level of expressed mRNA in the absence of chemical substance,yeast gene YEL042W,0.3
same,The level of expressed mRNA in the presence of chemical substance/The level of expressed mRNA in the absence of chemical substance,yeast gene YEL066W,2.4
same,The level of expressed mRNA in the presence of chemical substance/The level of expressed mRNA in the absence of chemical substance,yeast gene YER039C,0.8
same,The level of expressed mRNA in the presence of chemical substance/The level of expressed mRNA in the absence of chemical substance,yeast gene YER107C,0.5
same,The level of expressed mRNA in the presence of chemical substance/The level of expressed mRNA in the absence of chemical substance,yeast gene YER130C,1.3
same,The level of expressed mRNA in the presence of chemical substance/The level of expressed mRNA in the absence of chemical substance,yeast gene YFL028C,1.8
same,The level of expressed mRNA in the presence of chemical substance/The level of expressed mRNA in the absence of chemical substance,yeast gene YFL043C,3.8
same,The level of expressed mRNA in the presence of chemical substance/The level of expressed mRNA in the absence of chemical substance,yeast gene YGL158W,0.9
same,The level of expressed mRNA in the presence of chemical substance/The level of expressed mRNA in the absence of chemical substance,yeast gene YGL229C,1.7
same,The level of expressed mRNA in the presence of chemical substance/The level of expressed mRNA in the absence of chemical substance,yeast gene YGR136W,2.2
same,The level of expressed mRNA in the presence of chemical substance/The level of expressed mRNA in the absence of chemical substance,yeast gene YGR189C,0.9
same,The level of expressed mRNA in the presence of chemical substance/The level of expressed mRNA in the absence of chemical substance,yeast gene YGR213C,6.9
same,The level of expressed mRNA in the presence of chemical substance/The level of expressed mRNA in the absence of chemical substance,yeast gene YGR257C,1.9
same,The level of expressed mRNA in the presence of chemical substance/The level of expressed mRNA in the absence of chemical substance,yeast gene YHR004C,0.6
same,The level of expressed mRNA in the presence of chemical substance/The level of expressed mRNA in the absence of chemical substance,yeast gene YHR071W,7.2
same,The level of expressed mRNA in the presence of chemical substance/The level of expressed mRNA in the absence of chemical substance,yeast gene YHR139C,46.6
same,The level of expressed mRNA in the presence of chemical substance/The level of expressed mRNA in the absence of chemical substance,yeast gene YHR142W,0.9
same,The level of expressed mRNA in the presence of chemical substance/The level of expressed mRNA in the absence of chemical substance,yeast gene YIL123W,0.2
same,The level of expressed mRNA in the presence of chemical substance/The level of expressed mRNA in the absence of chemical substance,yeast gene YIL140W,0.6
same,The level of expressed mRNA in the presence of chemical substance/The level of expressed mRNA in the absence of chemical substance,yeast gene YJL073W,0.7
same,The level of expressed mRNA in the presence of chemical substance/The level of expressed mRNA in the absence of chemical substance,yeast gene YJL089W,3.9
same,The level of expressed mRNA in the presence of chemical substance/The level of expressed mRNA in the absence of chemical substance,yeast gene YJL116C,2.6
same,The level of expressed mRNA in the presence of chemical substance/The level of expressed mRNA in the absence of chemical substance,yeast gene YJR004C,0.7
same,The level of expressed mRNA in the presence of chemical substance/The level of expressed mRNA in the absence of chemical substance,yeast gene YJR086W,1.1
same,The level of expressed mRNA in the presence of chemical substance/The level of expressed mRNA in the absence of chemical substance,yeast gene YKL008C,0.4
